Experimental data taken from a melting point compilation (Tetko et al.; mined from patent text by program, amines drawn as free bases though some values may be those of a salt).
Residues, ends and D or L forms follow the SMILES beside them.

Structure (SMILES)	melting point
CC(=O)Nc1cc(F)cc2c1OCCC21SC(=O)NC1=O (centres undefined)	278 to 280 °C
Cc1noc(NS(=O)(=O)c2c(Cc3ccccc3)sc3ccccc23)c1Br	120 to 123 °C
O=c1c2ccccc2cc2n1CCS2(=O)=O	208 to 211 °C
CC1=CN2CCS(=O)(=O)N=C2C(c2ccc(OC3CCCCC3)cc2)=N1	216 to 217 °C
O=C(Nc1ccc(Cl)cc1)NC1N=C(c2ccccc2)c2ccccc2-n2cnnc21 (centres undefined)	294 to 296 °C
CSc1ccc(C(=N)Nc2ccc(C)c(C)c2)cc1	111 to 113 °C
CC1(C)CC(OC(=O)NNC(=O)OC2CC(C)(C)N(OC3CCCCC3)C(C)(C)C2)CC(C)(C)N1OC1CCCCC1	150 to 152 °C
CCn1nnc2cc3c(N4CCN(C(=O)Nc5ccc(Oc6ccccc6)cc5)CC4)ncnc3cc21	167 to 168 °C
CC(=O)c1cccc(-c2ncc(N=CN(C)C)cn2)c1	146 to 148 °C
CC(C)(C)OC(=O)N1CCC2(Cc3cc4ccccc4n3C2)C1 (centres undefined)	104 to 106 °C
CC(C)c1cccc(C(C)C)c1NC(=O)NCC1(c2ccc3ccccc3c2)CCCC1	152 to 154 °C
CC(C)(C)OC(=O)N1CCC2(CC1)C(=O)N(CC(=O)O)CN2C1CCCCC1	173 to 174 °C
CCCn1c(COC)nc2c(N)nc3ccc(OCCN4CCCCC4)cc3c21	160 to 162 °C
CC(C)CS(=O)(=O)c1ccc(F)c(C#Cc2cc(Cl)ccc2OCC(=O)O)c1	141 to 143 °C
O=Cc1cc(O)c(O)c([N+](=O)[O-])c1	142 to 143 °C
Cc1nc(-c2ccc(C(=O)O)s2)no1	218 to 220 °C
O=C(O)CCc1cc2ccc(C(F)(F)F)cc2n1S(=O)(=O)c1ccccc1	168 to 169 °C
COc1c(Br)cc(Br)cc1C1(C#N)CCCCC1	100 to 102 °C
O=C(NC12CC3CC(CC(C3)C1)C2)n1cc(F)c(=O)[nH]c1=O	> 260 °C
COc1cc(S(N)(=O)=O)cc(C(=O)NC2CCN(CC3CCCCC3)C2)c1OC (centres undefined)	167 °C
CC1C(=O)OC2COCC21 (centres undefined)	89.5 to 90 °C
Cc1c(C)c2c(c(C)c1O)CCC(C)(COc1ccc(NC(=S)NC(c3ccccc3)c3ccccc3)cc1)O2 (centres undefined)	146 to 148 °C
N#Cc1cc(C=O)ccc1-n1cnc([N+](=O)[O-])n1	170 to 172 °C

Structure (SMILES)	melting point
Cc1cc(O)c2c(c1)CCC2	82 to 83 °C
COc1ccc(N2CCN(Cc3ccc([N+](=O)[O-])cc3)CC2)cc1	130 to 132 °C
CC(=O)OCC1OC(n2c3ccccc3c3c4c(c5c6cccnc6[nH]c5c32)C(=O)N(CO)C4=O)C(OC(C)=O)C(OC(C)=O)C1OC(C)=O (centres undefined)	264 to 266 °C
Fc1ccccc1COC1COC(c2ccco2)OC1 (centres undefined)	50.5 to 52 °C
COc1ccc(C(=O)Cc2cccc(C(F)(F)F)c2)cc1	94 to 95 °C
CC(C)(C)c1ccc(C(O)CCCn2ccnc2)cc1 (centres undefined)	205 to 207 °C
O=C(O)c1ccc(OC(=O)c2ccc(O)c(C34CC5CC(CC(C5)C3)C4)c2)cc1	269 to 271 °C
O=C(N[C@H]1CCOC1=O)[C@H](Cc1ccccc1)NS(=O)(=O)c1cccc2ccccc12	93 to 94 °C
CN1CCC(=O)C(C(c2ccc(F)cc2)c2ccc(F)cc2)C1 (centres undefined)	127 to 129 °C
CCCCCCCC[C@H](O)[C@H](O)[C@H]1CCC(=O)O1	117 to 119 °C
CC(=O)NCC1CN(Cc2ccccc2)CCO1 (centres undefined)	110 to 111 °C
NC1=C(N)C(=O)C(N)=C(N)C1=O	260 to 262 °C
CCOC(=O)C1=C(CSC(=N)N)NC(C)=C(C(=O)OC)C1c1cccc([N+](=O)[O-])c1 (single isomer, unassigned; (+))	122 to 124 °C
N#Cc1cnc2cc(Br)sc2c1Nc1ccc(Oc2ccccc2)cc1	248 to 250 °C
O=C1NCCN1c1ccc(C2CCN(C(=O)C(F)(F)F)CC2)cc1	198 to 201 °C
CC(C)N(O)C(=O)CCC1C=CC2=C(Cc3ccccc3CO2)C1=O (centres undefined)	118 °C
COc1cccc(CC2NC(=O)NC2=O)c1OCc1ccccc1 (racemic)	202 to 204 °C
O=C(O)Cc1c(C(=O)c2ccc(Cl)c(F)c2)[nH]c2cc(Cl)ccc12	179 to 182 °C
CSc1cnc(OCCOc2ncnc(NS(=O)(=O)c3ccc(C(C)(C)C)cc3)c2-c2ccc(C(=O)O)cc2)nc1	226 to 227 °C
CC(C)Cn1nc(-c2ccc(F)c(F)c2)cc(COS(C)(=O)=O)c1=O	113 °C
O=C(C=C1SC(Nc2c(Cl)cccc2Cl)=NC1=O)NCc1ccccc1	205 to 206 °C
O=C(c1ccccc1)c1nc(Cl)ccc1[N+](=O)[O-]	107 °C
CCc1c(C=O)c2ccc(C(N)=O)cc2n1Cc1ccccc1Cl	260 to 261 °C

Structure (SMILES)	melting point
CCC(CC)Oc1ccc(/C=C/C(=O)Nc2ccccc2C(=O)O)cc1OC	82 to 85 °C
O=C1Cc2cc(Br)cnc2N1	250 °C
COC(=O)c1ccc(Cl)cc1NC(=O)CSc1ccc(NC(=O)Cc2ccccc2)cc1	144 to 146 °C
CCN(CC)CCOC(=N)N1CCC(c2nsc3ccccc23)CC1	84 to 86 °C
COc1ccc(-c2cc(-c3ccc(-c4c(Cc5ccccc5)sc5ccccc45)c(Br)c3)ccc2OCC(=O)O)cc1OC	103 to 105 °C
CC(C(N)=O)n1c(-c2ccc(Cl)cc2)nc2cccnc21 (centres undefined)	202 to 204 °C
CC(=O)SCCc1cn2cccnc2n1	122 to 124 °C
COc1cc(NC(=O)Nc2ccc3c(c2)CCN(C(=O)Nc2ccc(OCCO)cc2Cl)C3)cc(OC)c1	105 to 110 °C
COC(=O)c1cccc(CN2CCc3cc(O)c(OC)cc3C2)c1	156 to 158 °C
CCc1nc(OC)c(NC(=O)N2CCN(c3cc(F)cc(F)c3)CC2)cc1C(=O)Nc1cc(CO)cc(Nc2c3ccccc3nc3ccccc23)c1	184 to 186 °C
CCOC(=O)c1cc(Br)cc2c(=O)c(OCCCN3CCN(Cc4ccc5ccccc5n4)CC3)c(-c3ccccc3)oc12	125 to 126 °C
Fc1ccc(-c2ncn(C3CCN4CCCC4C3)c2-c2ccncc2)cc1 (centres undefined)	187 to 189 °C
N#Cc1nn(-c2c(Cl)cc(C(F)(F)F)cc2Cl)c(N)c1-c1ccc(Cl)cc1	235 to 237 °C
CCn1c(=O)n(C2CCN(CCCCN3C(=O)c4ccccc4S3(=O)=O)CC2)c2ccccc21	124 to 125 °C
COc1cc(Br)c(OC)c(C(N)=O)c1	222 to 225 °C
CS(=O)(=O)c1ccc(-c2cnn(-c3cccc(Cl)c3)c(=O)c2-c2ccc(F)cc2)cc1	232 to 235 °C
Nc1nc(Cl)c2cnn(Cc3ccccc3F)c2n1	197 to 198 °C
COC(=O)C(Cc1ccccc1)NC(=O)C(CC(=O)O)NC(=O)CN (stereo not drawn) (H-Gly-Asp-Phe-OMe; configuration not given here)	233 to 235 °C
C=CCOc1cc(F)nc(N)n1	62 to 66 °C
CSc1nn2c(NCCN(C)C)cc(C)nc2c1S(=O)(=O)c1ccccc1	190 to 191 °C
CCOC(=O)c1cnc2cc(NC(C)=O)c(F)cc2c1O	320 °C
CN(C(=O)Cl)c1ccccc1C(F)(F)F	44 to 46 °C
CCN1CCc2ccc(Nc3ncc([N+](=O)[O-])c(Nc4ccccc4C(=O)NC)n3)cc2CC1	222 to 225 °C
